Results taken from ChEMBL document CHEMBL1128875, “Synthesis and biological activity of Para-substituted 3-phenyl docetaxel analogs” (Bioorg Med Chem Lett, 1995).
Converted amounts (≈) assume the structure as drawn.

Tests used:
[1] = species: Mus musculus; assay: Ratio of median tumor weight of the treated mice /control mice; assay type: functional
[2] = target: Tubulin alpha chain (Sus scrofa) (UniProt P02550); assay: Tested for 50% inhibition of the rate of microtubule disassembly to that paclitaxel; assay type: functional
[3] = system: P388; assay: In vitro cytotoxicity against murine P388 lymphocytic leukemia cells; assay type: functional, cell-based; settings: Mus musculus
[4] = system: Mus musculus; assay: In vivo antitumor activity against B16 melanoma cells in mice; assay type: functional
[5] = species: Mus musculus; assay: Ratio of median tumor weight of the treated mice /control mice; non evaluable: immediate death after injection (insoluble compound); assay type: ADME, organism-based; settings: in vivo
[6] = species: Mus musculus; assay: Ratio of median tumor weight of the treated mice /control mice; non evaluable: delayed toxicity; assay type: organism-based; settings: in vivo

Tubulin alpha chain (Sus scrofa), sequence (P02550 whole entry, looked up): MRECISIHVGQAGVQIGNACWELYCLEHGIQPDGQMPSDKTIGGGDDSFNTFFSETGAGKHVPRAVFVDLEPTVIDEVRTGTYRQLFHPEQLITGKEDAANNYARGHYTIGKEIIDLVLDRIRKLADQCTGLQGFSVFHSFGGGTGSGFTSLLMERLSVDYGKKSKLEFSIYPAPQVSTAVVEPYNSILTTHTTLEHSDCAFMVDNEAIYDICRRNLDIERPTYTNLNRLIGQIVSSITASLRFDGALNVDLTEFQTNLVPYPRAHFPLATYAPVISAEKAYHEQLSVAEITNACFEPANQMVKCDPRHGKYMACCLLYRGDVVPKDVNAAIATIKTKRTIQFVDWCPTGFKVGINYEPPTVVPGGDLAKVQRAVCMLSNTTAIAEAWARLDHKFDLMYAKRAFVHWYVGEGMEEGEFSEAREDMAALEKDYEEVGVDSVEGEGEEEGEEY

SMILES | T/C [1] [%] | IC50 ratio [2] | IC50 [3] [µg/mL] | Max tolerated dose [4] [mg/kg/day] | T/C [5] | T/C [6]
CC(=O)O[C@@]12CO[C@@H]1C[C@H](O)[C@@]1(C)C(=O)[C@H](O)C3=C(C)[C@@H](OC(=O)[C@H](O)[C@@H](NC(=O)OC(C)(C)C)c4ccc(C)cc4)C[C@@](O)([C@@H](OC(=O)c4ccccc4)[C@H]21)C3(C)C | 8 | 1.3 | 0.04 (≈ 0.0487 µM) | 15.5 | – | –
CC(=O)O[C@@]12CO[C@@H]1C[C@H](O)[C@@]1(C)C(=O)[C@H](O)C3=C(C)[C@@H](OC(=O)[C@H](O)[C@@H](NC(=O)OC(C)(C)C)c4ccc(C(C)=O)cc4)C[C@@](O)([C@@H](OC(=O)c4ccccc4)[C@H]21)C3(C)C | 10 | 0.95 | 0.19 (≈ 0.224 µM) | 35.3 | – | –
CC(=O)O[C@@]12CO[C@@H]1C[C@H](O)[C@@]1(C)C(=O)[C@H](O)C3=C(C)[C@@H](OC(=O)[C@H](O)[C@@H](NC(=O)OC(C)(C)C)c4ccc(-c5ccccc5)cc4)C[C@@](O)([C@@H](OC(=O)c4ccccc4)[C@H]21)C3(C)C | 40 | 2 | 0.65 (≈ 0.735 µM) | 35 | – | –
CC(=O)O[C@@]12CO[C@@H]1C[C@H](O)[C@@]1(C)C(=O)[C@H](O)C3=C(C)[C@@H](OC(=O)[C@H](O)[C@@H](NC(=O)OC(C)(C)C)c4ccc(C=O)cc4)C[C@@](O)([C@@H](OC(=O)c4ccccc4)[C@H]21)C3(C)C | – | 0.75 | 0.13 (≈ 0.156 µM) | <13.4 | non evaluable: immediate death after injection (insoluble compound) | –
C=C(C)c1ccc([C@H](NC(=O)OC(C)(C)C)[C@@H](O)C(=O)O[C@H]2C[C@@]3(O)[C@@H](OC(=O)c4ccccc4)[C@@H]4[C@]5(OC(C)=O)CO[C@@H]5C[C@H](O)[C@@]4(C)C(=O)[C@H](O)C(=C2C)C3(C)C)cc1 | 105 | 1.8 | 0.35 (≈ 0.413 µM) | 20 | – | –
C#Cc1ccc([C@H](NC(=O)OC(C)(C)C)[C@@H](O)C(=O)O[C@H]2C[C@@]3(O)[C@@H](OC(=O)c4ccccc4)[C@@H]4[C@]5(OC(C)=O)CO[C@@H]5C[C@H](O)[C@@]4(C)C(=O)[C@H](O)C(=C2C)C3(C)C)cc1 | 15 | 0.6 | 0.085 (≈ 0.102 µM) | 21.7 | – | –
CC(=O)O[C@@]12CO[C@@H]1C[C@H](O)[C@@]1(C)C(=O)[C@H](O)C3=C(C)[C@@H](OC(=O)[C@H](O)[C@@H](NC(=O)OC(C)(C)C)c4ccc(C(=O)c5ccccc5)cc4)C[C@@](O)([C@@H](OC(=O)c4ccccc4)[C@H]21)C3(C)C | 95 | 20 | > 1 | 20 | – | –
CC(=O)O[C@@]12CO[C@@H]1C[C@H](O)[C@@]1(C)C(=O)[C@H](O)C3=C(C)[C@@H](OC(=O)[C@H](O)[C@@H](NC(=O)OC(C)(C)C)c4ccccc4)C[C@@](O)([C@@H](OC(=O)c4ccccc4)[C@H]21)C3(C)C.O.O.O [DOCETAXEL] | 0 | 0.64 | 0.04 | 13.4 | – | –
CC(=O)O[C@@]12CO[C@@H]1C[C@H](O)[C@@]1(C)C(=O)[C@H](O)C3=C(C)[C@@H](OC(=O)[C@H](O)[C@@H](NC(=O)OC(C)(C)C)c4ccc(CO)cc4)C[C@@](O)([C@@H](OC(=O)c4ccccc4)[C@H]21)C3(C)C | – | 0.4 | 0.06 (≈ 0.0716 µM) | <4.8 | – | non evaluable: delayed toxicity
C=Cc1ccc([C@H](NC(=O)OC(C)(C)C)[C@@H](O)C(=O)O[C@H]2C[C@@]3(O)[C@@H](OC(=O)c4ccccc4)[C@@H]4[C@]5(OC(C)=O)CO[C@@H]5C[C@H](O)[C@@]4(C)C(=O)[C@H](O)C(=C2C)C3(C)C)cc1 | 19 | 0.7 | 0.06 (≈ 0.0719 µM) | 38.3 | – | –
